Results taken from patent US11964973B2 (priority 2019, dated 2024).
Read-outs that look alike come from different tables or passages of the source.

Tests used:
[1] = test system: OT-1 CD8+ T cells with SIINFEKL-loaded MC38 tumor cells; experiment: Murine cytotoxic T lymphocyte assay (IFN-γ); assay type: cell-based, mouse; details: murine cytotoxic T lymphocyte, IFN-γ, read-out: msCTL INFg IC50
Source text: Assay 6: Murine Cytotoxic T Lymphocyte Assay
An antigen-specific cytolytic T-cell (CTL) assay was developed to evaluate functionally the ability of DGKα and DGKζ inhibitors to enhance effector T cell mediated tumor cell killing activity. CD8+ T-cells isolated from the OT-1 transgenic mouse recognize antigen presenting cells, MC38, that present the ovalbumin derived peptide […]. Recognition of the cognate antigen initiates the cytolytic activity of the OT-1 antigen-specific CD8+ T cells.
Functional CTL cells were generated as follows: OT-1 splenocytes from 8-12 week old mice were isolated and expanded in the presence of the […] peptide at 1 μg/mL and mIL2 at 10 U/mL. After three days, fresh media with […] was added. On day 5 of the expansion, the CD8+ T cells were isolated and ready for use. Activated CTL cells may be stored frozen for 6 months. Separately, one million MC38 tumor cells were pulsed with 1 μg/mL of […]-OVA peptide for 3 hours at 37° C. The cells were washed (3×) with fresh media to remove excess peptide. Finally, CTL cells that were pretreated with DGK inhibitors for 1 hour in a 96-well U bottom plate were combined with the antigen loaded MC38 tumor cells at a 1:10 ratio. The cells were then spun at 700 rpm for 5 min and placed in an incubator overnight at 37° C. After 24 hours, the supernatant was collected for analysis of IFN-γ cytokine levels by AlphaLisa purchased from Perkin Elmer.

[2] = test system: naïve human CD8 T cells; experiment: CellTiter-Glo CD8 T cell proliferation assay; assay type: cell-based; details: Homo sapiens, read-out: CD8 GLO Normalized EC50
Description: Assay 4: CellTiter-Glo CD8 T Cell Proliferation Assay
Frozen naïve human CD8 T cells were thawed in RPMI+10% FBS, incubated for 2 h in 37° C., and counted. The 384-well tissue culture plate was coated overnight at 4° C. with 20 μl anti-human CD3 at 0.1 μg/mL in plain RPMI, which was removed off the plate before 20 k/40 μL CD8 T cells with 0.5 μg/ml soluble anti-human CD28 were added to each well. The compounds were echoed to the cell plate immediately after the cells were plated. After 72 h incubation at 37° C. incubator, 10 μL CellTiter-glo reagent (Promega catalog number G7570) was added to each well. The plate was vigorously shaken for 5 mins, incubated at room temperature for another 15 mins and read on Envision for CD8 T cell proliferation. In analysis, 0.1 μg/mL anti-CD3 and 0.5 μg/mL anti-CD28 stimulated CD8 T cell signal was background.

[3] = biological target: human DGKζ (Homo sapiens (Human), UniProt Q13574); experiment: biochemical; assay type: biochemical; details: liposome (LIPGLO) assay; read-out: DGKζ LIPGLO IC50
[4] = biological target: DGKα (Homo sapiens (Human), UniProt P23743); experiment: biochemical; assay type: biochemical; details: liposome (LIPGLO) assay; read-out: DGKα LIPGLO IC50
[5] = test system: Human venous whole blood (IFN-γ); experiment: Human whole blood IFN-γ assay; assay type: cell-based; details: Homo sapiens, 24 h, human whole blood, anti-CD3 plus anti-CD28, 24 hours; read-out: INFg Whole Blood Normalized Agonist EC50
Description: Assay 10: Human Whole Blood IFN-γ Assay
Human venous whole blood (22.5 μL per well), obtained from healthy donors, was pre-treated with compounds for one hour at 37° C. in a humidified 95% air/5% CO2 incubator. The blood was stimulated with 2.5 μL anti-human CD3 and anti-CD28 mAb at a final concentration of 1 μg/mL each for 24 hours at 37° C. IFN-γ in the supernatants was measured using AlphLISA kit (Cat #AL217).

Sequence of human DGKζ (Q13574 whole entry, looked up): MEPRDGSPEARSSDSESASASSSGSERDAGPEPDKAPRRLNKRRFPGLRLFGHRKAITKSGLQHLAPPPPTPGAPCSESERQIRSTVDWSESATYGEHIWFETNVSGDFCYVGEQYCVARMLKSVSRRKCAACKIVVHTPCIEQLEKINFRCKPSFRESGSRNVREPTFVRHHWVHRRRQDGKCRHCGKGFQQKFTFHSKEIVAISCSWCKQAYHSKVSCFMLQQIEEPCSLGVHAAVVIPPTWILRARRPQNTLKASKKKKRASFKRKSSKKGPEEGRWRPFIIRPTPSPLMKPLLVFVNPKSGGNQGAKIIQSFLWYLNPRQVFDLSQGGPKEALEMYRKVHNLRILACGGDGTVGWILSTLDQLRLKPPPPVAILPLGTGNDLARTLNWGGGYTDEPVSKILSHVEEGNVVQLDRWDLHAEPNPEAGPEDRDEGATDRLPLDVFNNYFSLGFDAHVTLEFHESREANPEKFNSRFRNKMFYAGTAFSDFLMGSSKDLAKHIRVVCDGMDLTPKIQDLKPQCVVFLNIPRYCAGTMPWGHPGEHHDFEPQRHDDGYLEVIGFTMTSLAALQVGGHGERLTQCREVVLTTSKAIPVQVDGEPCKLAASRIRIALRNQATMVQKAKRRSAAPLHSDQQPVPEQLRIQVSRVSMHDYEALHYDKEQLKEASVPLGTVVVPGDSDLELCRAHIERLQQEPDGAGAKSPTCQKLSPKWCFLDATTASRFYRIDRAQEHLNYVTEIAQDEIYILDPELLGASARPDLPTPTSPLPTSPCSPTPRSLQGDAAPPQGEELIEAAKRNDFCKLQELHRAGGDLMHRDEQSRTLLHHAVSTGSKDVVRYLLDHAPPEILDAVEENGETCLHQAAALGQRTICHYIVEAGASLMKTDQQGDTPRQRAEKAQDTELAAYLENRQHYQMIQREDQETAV
Sequence of DGKα (P23743 whole entry, looked up): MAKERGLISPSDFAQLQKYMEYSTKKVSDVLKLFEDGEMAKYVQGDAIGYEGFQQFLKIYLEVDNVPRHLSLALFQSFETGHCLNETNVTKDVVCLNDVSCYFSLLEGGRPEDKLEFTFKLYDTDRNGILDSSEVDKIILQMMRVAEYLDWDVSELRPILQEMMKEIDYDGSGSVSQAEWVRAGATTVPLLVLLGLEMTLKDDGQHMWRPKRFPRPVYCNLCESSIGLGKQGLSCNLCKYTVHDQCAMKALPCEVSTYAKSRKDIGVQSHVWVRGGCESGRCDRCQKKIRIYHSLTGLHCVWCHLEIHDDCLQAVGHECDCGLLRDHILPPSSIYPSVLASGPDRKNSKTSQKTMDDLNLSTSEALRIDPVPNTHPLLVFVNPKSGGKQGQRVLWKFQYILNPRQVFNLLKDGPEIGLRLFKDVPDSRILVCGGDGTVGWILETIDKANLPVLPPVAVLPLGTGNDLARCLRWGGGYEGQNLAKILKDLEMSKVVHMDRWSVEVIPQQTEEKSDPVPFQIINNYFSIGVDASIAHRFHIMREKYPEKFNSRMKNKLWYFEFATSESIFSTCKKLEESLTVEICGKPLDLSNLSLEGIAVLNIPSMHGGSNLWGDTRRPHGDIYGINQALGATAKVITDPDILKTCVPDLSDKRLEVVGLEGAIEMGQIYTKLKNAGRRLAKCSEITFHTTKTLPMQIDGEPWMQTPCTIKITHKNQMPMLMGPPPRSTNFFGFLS

SMILES	IC50 ([1]; Mus musculus, MC-38) [µM]	EC50 [2] [µM]	IC50 [3] [µM]	IC50 [4] [µM]	EC50 [5] [µM]	IC50 [1] [µM]
Cn1c(=O)c(C#N)c(N2CCC(Oc3cccc(C#N)c3)CC2)c2nc(Cl)ccc21 [Example 34, 6-chloro-4-(4-(3-cyanophenoxy)piperidin-1-yl)-1-methyl-2-oxo-1,2-dihydro-1,5-naphthyridine-3-carbonitrile]	8.5	4.1	9	1.1		
Cn1c(=O)c(C#N)c(N2CCC(Oc3ccc(OC(F)(F)F)c(Cl)c3)CC2)c2nc(Cl)ccc21 [Example 42, 6-chloro-4-(4-(3-chloro-4-(trifluoromethoxy)phenoxy)piperidin-1-yl)-1-methyl-2-oxo-1,2-dihydro-1,5-naphthyridine-3-carbonitrile]	10	0.7	240	5.4		
Cc1cc(Br)ccc1OC1CCN(c2c(C#N)c(=O)n(C)c3ccc(Cl)nc23)CC1 [Example 26, 4-(4-(4-bromo-2-methylphenoxy)piperidin-1-yl)-6-chloro-1-methyl-2-oxo-1,2-dihydro-1,5-naphthyridine-3-carbonitrile]	10	2.7				
Cn1c(=O)c(C#N)c(N2CCC(Oc3ccc(F)cc3)CC2)c2nc(Cl)ccc21 [Example 20, 6-chloro-4-(4-(4-fluorophenoxy)piperidin-1-yl)-1-methyl-2-oxo-1,2-dihydro-1,5-naphthyridine-3-carbonitrile]		0.87	16	0.43		
Cn1c(=O)c(C#N)c(N2CCC(Oc3ccccc3OC(F)(F)F)CC2)c2nc(Cl)ccc21 [Example 33, 6-chloro-1-methyl-2-oxo-4-(4-(2-(trifluoromethoxy)phenoxy)piperidin-1-yl)-1,2-dihydro-1,5-naphthyridine-3-carbonitrile]	3.8	10	240	2.8		
Cn1c(=O)c(C#N)c(N2CCC(Oc3ccc(C#N)cc3)CC2)c2nc(Cl)ccc21 [Example 32, 6-chloro-4-(4-(4-cyanophenoxy)piperidin-1-yl)-1-methyl-2-oxo-1,2-dihydro-1,5-naphthyridine-3-carbonitrile]	10					
Cn1c(=O)c(C#N)c(N2CCC(Oc3cc(F)ccc3Cl)CC2)c2nc(Cl)ccc21 [Example 23, 6-chloro-4-(4-(2-chloro-5-fluorophenoxy)piperidin-1-yl)-1-methyl-2-oxo-1,2-dihydro-1,5-naphthyridine-3-carbonitrile]	10		58	66		
Cn1c(=O)c(C#N)c(N2CCC(Oc3ccc(OC(F)(F)F)cc3)CC2)c2nc(Cl)ccc21 [Example 19, 6-chloro-1-methyl-2-oxo-4-(4-(4-(trifluoromethoxy)phenoxy)piperidin-1-yl)-1,2-dihydro-1,5-naphthyridine-3-carbonitrile]	0.21	0.28		0.32	10	
Cc1cccc(OC2CCN(c3c(C#N)c(=O)n(C)c4ccc(Cl)nc34)CC2)c1 [Example 22, 6-chloro-1-methyl-2-oxo-4-(4-(m-tolyloxy)piperidin-1-yl)-1,2-dihydro-1,5-naphthyridine-3-carbonitrile]		0.62	5.7	0.15		
Cn1c(=O)c(C#N)c(N2CCC(Oc3cccc(C(F)(F)F)c3)CC2)c2nc(Cl)ccc21 [Example 24, 6-chloro-1-methyl-2-oxo-4-(4-(3-(trifluoromethyl)phenoxy)piperidin-1-yl)-1,2-dihydro-1,5-naphthyridine-3-carbonitrile]	1.5	0.75	27	2		
Cn1c(=O)c(C#N)c(N2CCC(Oc3cccc(F)c3)CC2)c2nc(Cl)ccc21 [Example 45, 6-chloro-4-(4-(3-fluorophenoxy)piperidin-1-yl)-1-methyl-2-oxo-1,2-dihydro-1,5-naphthyridine-3-carbonitrile]	10	0.098				
Cn1c(=O)c(C#N)c(N2CCC(Oc3ccccc3C#N)CC2)c2nc(Cl)ccc21 [Example 43, 6-chloro-4-(4-(2-cyanophenoxy)piperidin-1-yl)-1-methyl-2-oxo-1,2-dihydro-1,5-naphthyridine-3-carbonitrile]	10	10	27	1.5		
Cn1c(=O)c(C#N)c(N2CCC(Oc3ccc(OC(F)(F)F)cc3)CC2)c2nc(Br)ccc21 [Example 47, 6-Bromo-1-methyl-2-oxo-4-(4-(4-(trifluoromethoxy)phenoxy)piperidin-1-yl)-1,2-dihydro-1,5-naphthyridine-3-carbonitrile]	0.68	0.49	240	0.45		
Cc1cc(F)cc(OC2CCN(c3c(C#N)c(=O)n(C)c4ccc(Cl)nc34)CC2)c1 [Example 28]			5.4	1.6		10
Cn1c(=O)c(C#N)c(N2CCC(Oc3ccccc3F)CC2)c2nc(Cl)ccc21 [Example 44, 6-chloro-4-(4-(2-fluorophenoxy)piperidin-1-yl)-1-methyl-2-oxo-1,2-dihydro-1,5-naphthyridine-3-carbonitrile]		1.5	59	1.7		
Cn1c(=O)c(C#N)c(N2CCC(Oc3ccc(C(F)(F)F)cc3)CC2)c2nc(Cl)ccc21 [Example 30, 6-chloro-1-methyl-2-oxo-4-(4-(4-(trifluoromethyl)phenoxy)piperidin-1-yl)-1,2-dihydro-1,5-naphthyridine-3-carbonitrile]	3.5	10	240	0.98		
Cn1c(=O)c(C#N)c(N2CCC(Oc3ccccc3)CC2)c2nc(Cl)ccc21 [Example 46, 6-chloro-1-methyl-2-oxo-4-(4-phenoxypiperidin-1-yl)-1,2-dihydro-1,5-naphthyridine-3-carbonitrile]	8.5	1.2	27	0.15		
Cn1c(=O)c(C#N)c(N2CCC(Oc3cccc(Cl)c3)CC2)c2nc(Cl)ccc21 [Example 27, 6-chloro-4-(4-(3-chlorophenoxy)piperidin-1-yl)-1-methyl-2-oxo-1,2-dihydro-1,5-naphthyridine-3-carbonitrile]	7.4	0.073				
Cn1c(=O)c(C#N)c(N2CCC(Oc3ccc(Cl)cc3)CC2)c2nc(Cl)ccc21 [Example 16, 6-chloro-4-(4-(4-chlorophenoxy)piperidin-1-yl)-1-methyl-2-oxo-1,2-dihydro-1,5-naphthyridine-3-carbonitrile]	1.1	0.093		1.7	10	
COc1ccccc1OC1CCN(c2c(C#N)c(=O)n(C)c3ccc(Cl)nc23)CC1 [Example 35, 6-chloro-4-(4-(2-methoxyphenoxy)piperidin-1-yl)-1-methyl-2-oxo-1,2-dihydro-1,5-naphthyridine-3-carbonitrile]		0.21	12	0.29		
CC(C)c1ccc(OC2CCN(c3c(C#N)c(=O)n(C)c4ccc(Cl)nc34)CC2)cc1 [Example 37, 6-chloro-4-(4-(4-isopropylphenoxy)piperidin-1-yl)-1-methyl-2-oxo-1,2-dihydro-1,5-naphthyridine-3-carbonitrile]		1.1	240	0.49		
